Results taken from ChEMBL document CHEMBL1137838, “Synthesis and structure-activity relationships of andrographolide analogues as novel cytotoxic agents” (2004).

Tests used:
Format in all cases: functional
DU-145 = assay: Concentration causing 50% inhibition of cancer cell growth against human prostate DU145 cell line
SW-620 = assay: Concentration causing 50% inhibition of cancer cell growth against human colon SW620 cell line
U-251 = assay: Concentration causing 50% inhibition of cancer cell growth against human CNS U251 cell line
NCI-H522 = assay: Concentration causing 50% inhibition of cancer cell growth against human lung H522 cell line
SK-OV-3 = assay: Concentration causing 50% inhibition of cancer cell growth against human ovarian SKOV3 cell line
NCI/ADR-RES = assay: Concentration causing 50% inhibition of cancer cell growth against human breast MCF-7/ADR cell line
A498 = assay: Concentration causing 50% inhibition of cancer cell growth against human renal A498 cell line

SMILES	IG50 (DU-145) [µM]	IG50 (SW-620) [µM]	IG50 (U-251) [µM]	IG50 (NCI-H522) [µM]	IG50 (SK-OV-3) [µM]	IG50 (NCI/ADR-RES) [µM]	IG50 (A498) [µM]
CCC(=O)OC[C@@]1(C)[C@H]2CC[C@@]3(CO3)[C@@H](C/C=C3/C(=O)OC[C@H]3OC(=O)CC)[C@]2(C)CC[C@H]1OC(=O)CC	3	2	3	3	1.36	–	–
C[C@]1(CO)[C@H]2CC[C@@]3(CO3)[C@@H](C/C=C3/C(=O)OC[C@H]3O)[C@]2(C)CC[C@H]1O	20	30	16	30	4	20	30
CC(=O)OC[C@@]1(C)[C@H]2CCC3=COC(C4=CCOC4=O)C[C@H]3[C@]2(C)CC[C@H]1OC(C)=O (stereo partly drawn)	40	40	30	50	40	40	–
CCC(=O)OC[C@@]1(C)[C@H]2CC[C@@]3(CO3)[C@@H](C/C=C3/C(=O)OC[C@H]3OC(=O)/C=C/c3ccc(OC)cc3)[C@]2(C)CC[C@H]1OC(=O)CC	2	0.6	3	4.8	2	3	3
C=C1CC[C@@H]2[C@](C)(CO)[C@H](O)CC[C@@]2(C)[C@@H]1C/C=C(/C(=O)O)[C@H](O)CO	>100	>100	>100	80	>100	30	4
CC(=O)O[C@@H]1COC(=O)/C1=C/C[C@@H]1[C@@]2(CC[C@@H]3[C@](C)(CO)[C@H](O)CC[C@]31C)CO2	25	20	50	25	5	20	7
C=C1CC[C@@H]2[C@](C)(CO)[C@H](O)CC[C@@]2(C)[C@@H]1C/C=C1/C(=O)OC[C@H]1O [ANDROGRAPHOLIDE]	20	10	3	17	15	15	30
CCC(=O)OC[C@@]1(C)[C@H]2CC[C@@]3(CO3)[C@@H](C/C=C3/C(=O)OC[C@H]3OC(=O)/C=C/c3ccc4c(c3)OCO4)[C@]2(C)CC[C@H]1OC(=O)CC	4	65	35	3	0.3	20	6
C=C1CC[C@@H]2[C@](C)(CO)[C@H](O)CC[C@@]2(C)[C@@H]1/C=C/C1=CCOC1=O	2	>100	81	>100	–	>100	–
CC(=O)OC[C@@]1(C)[C@H]2CC[C@@H](C=O)[C@@H](C/C=C3/C(=O)OC[C@H]3OC(C)=O)[C@]2(C)CC[C@H]1OC(C)=O	12	32	62	34	3	–	–
CCC(=O)O[C@@H]1COC(=O)/C1=C/C[C@@H]1[C@@]2(CC[C@@H]3[C@](C)(CO)[C@H](OC(=O)CC)CC[C@]31C)CO2	20	7	35	40	3	30	40
CC(=O)OC[C@@]1(C)[C@H]2CC[C@@H](CO)[C@@H](C/C=C3/C(=O)OC[C@H]3OC(C)=O)[C@]2(C)CC[C@H]1OC(C)=O	2	7	19	19	3	–	–
CCC(=O)OC[C@@]1(C)[C@H]2CC[C@@]3(CO3)[C@@H](C/C=C3/C(=O)OC[C@H]3OC(=O)/C=C/c3ccccc3)[C@]2(C)CC[C@H]1OC(=O)CC	4	2.5	6	20	10	0.08	3
CC(C)(C)OC(=O)NCC(=O)O[C@@H]1COC(=O)/C1=C/C[C@@H]1[C@@]2(CC[C@@H]3[C@](C)(CO)[C@H](O)CC[C@]31C)CO2	20	40	40	>100	6	7	5
CCC(=O)OC[C@@]1(C)[C@H]2CC[C@@]3(CO3)[C@@H](C/C=C3/C(=O)OC[C@H]3OC(=O)CNC(=O)OC(C)(C)C)[C@]2(C)CC[C@H]1OC(=O)CC	20	30	20	4	15	15	4
CC(=O)O[C@@H]1COC(=O)/C1=C/C[C@@H]1[C@@]2(CC[C@@H]3[C@](C)(CO)[C@H](OC(C)=O)CC[C@]31C)CO2	6.5	55	30	30	2.5	20	6
CC(=O)O[C@@H]1CC[C@]2(C)[C@H](CC[C@@]3(CO3)[C@H]2C/C=C2/C(=O)OC[C@H]2O)[C@]1(C)CO	50	>100	45	60	50	20	20
CCC(=O)OC[C@@]1(C)[C@H]2CC[C@@]3(CO3)[C@@H](C/C=C3/C(=O)OC[C@H]3OC(=O)/C=C/c3ccc(OC)c(OC)c3)[C@]2(C)CC[C@H]1OC(=O)CC	2.5	0.4	2	7.5	2.5	1.5	3.5
C=C1CC[C@@H]2[C@](C)(CO)[C@H](O)CC[C@@]2(C)[C@@H]1CCC1=CCOC1=O [DEOXYANDROGRAPHOLIDE]	5	54	>100	>100	0.18	–	–
CC(=O)OC[C@@]1(C)[C@H]2CC[C@@]3(CO3)[C@@H](C/C=C3/C(=O)OC[C@H]3O)[C@]2(C)CC[C@H]1OC(C)=O	–	20	40	–	>100	30	20
C=C1CC[C@@H]2[C@](C)(CO)[C@H](O)CC[C@@]2(C)[C@@H]1CCC1C(=O)OC[C@H]1O (stereo partly drawn)	2	>100	85	>100	>100	–	–
CC(=O)OC[C@@]1(C)[C@H]2CC[C@@]3(CO3)[C@@H](C/C=C3/C(=O)OC[C@H]3OC(C)=O)[C@]2(C)CC[C@H]1OC(C)=O	15	1	2.5	15	25	5	0.25
C[C@]1(CO)[C@H]2CC[C@@]3(CO3)[C@@H](C/C=C3/C(=O)OC[C@H]3OC(=O)/C=C/c3ccccc3)[C@]2(C)CC[C@H]1O	5.5	0.5	6	6	4	2	9
CC(=O)OC[C@@]1(C)[C@H]2CC[C@@]3(CO3)[C@@H](C/C=C3/C(=O)OC[C@H]3OC(=O)CNC(=O)OC(C)(C)C)[C@]2(C)CC[C@H]1OC(C)=O	7	3	4	4	8	4	20
